Assay results reported in article PMC9333455, “Drug repurposing based on a quantum-inspired method versus classical fingerprinting uncovers potential antivirals against SARS-CoV-2” (PLoS Computational Biology, 2022).
Where two headings read alike, the source gives them in different places.

What was measured:
[1] = test system: SARS-CoV-2 (England 02/2020/407073 isolate); assay: SARS-CoV-2 replication in Vero E6 cells, plaque assay; assay type: cell-based
Vero E6 cells = assay: Cytotoxicity in uninfected Vero E6 cells, MTT assay
SARS-CoV-2 [2] = conditions: cited from earlier work
SARS-CoV-2 RdRP = SARS-CoV-2 RdRP (Severe acute respiratory syndrome coronavirus 2, UniProt P0DTD1); assay: SARS-CoV-2 RdRP RNA polymerization activity, in vitro fluorescent assay; assay type: biochemical; conditions: for inhibition of RdRP polymerization activity (in words): dose-response, relative to DMSO
SARS-CoV-2 [3] = assay: Total and genomic viral RNA levels in cell lysates, RT-qPCR; assay type: cell-based; conditions: Vero E6 and Caco-2 cells, 48 hours after infection
[4] = parameters: method as in PMID 25251156; conditions: halted progression from phase II clinical trials; cited from earlier work
[5] = Severe acute respiratory syndrome coronavirus 2, Vero C1008, read-out: IC50 (50% decrease in the titre of supernatant virus), MOI 0.05, 48 h
[6] = purified RdRP, 2 hours at 37°C, middle point between top and bottom plateaus, read-out: relative IC50 (RdRP polymerization activity)

| SMILES | IC50 [1, 5] [µM] | inhibition of RdRP polymerization activity (in words) (SARS-CoV-2 RdRP) | IC50 (SARS-CoV-2 RdRP; [6]) [µM] | further results |
| --- | --- | --- | --- | --- |
| CCC(CC)COC(=O)[C@H](C)N[P@](=O)(OC[C@H]1O[C@@](C#N)(c2ccc3c(N)ncnn23)[C@H](O)[C@@H]1O)Oc1ccccc1 [Remdesivir] | 1 |  |  | cytotoxic effects (in words) (Vero E6 cells): did not exert observable cytotoxic effects |
| CC(C)OC(=O)[C@H](C)N[P@+]([O-])(OC[C@H]1O[C@@](C#N)(c2ccc3c(N)ncnn23)[C@](C)(O)[C@@H]1OC(=O)C(C)C)Oc1ccccc1 [GS-6620] |  |  |  | efficacy against SARS-CoV-2 (in words) (SARS-CoV-2 [2]): lack of efficacy against SARS-CoV-2 |
| C/C1=C2/[N-][C@H]([C@H](CC(N)=O)[C@@]2(C)CCC(=O)NC[C@@H](C)OP(=O)([O-])O[C@H]2[C@@H](O)[C@@H](n3cnc4cc(C)c(C)cc43)O[C@@H]2CO)[C@]2(C)N=C(/C(C)=C3N=C(/C=C4N=C1[C@@H](CCC(N)=O)C\4(C)C)[C@@H](CCC(N)=O)[C@]\3(C)CC(N)=O)[C@@H](CCC(N)=O)[C@]2(C)CC(N)=O.[Co+3].[OH-] [Hydroxocobalamin, hydroxocobalamin] |  | inhibited RdRP polymerization activity in a dose-dependent manner | 90.4 |  |
| C/C1=C2/[N-]C([C@H](CC(N)=O)[C@@]2(C)CCC(=O)NC[C@@H](C)OP(=O)([O-])O[C@H]2[C@@H](O)[C@@H](n3cnc4cc(C)c(C)cc43)O[C@@H]2CO)[C@]2(C)N=C(/C(C)=C3N=C(/C=C4N=C1[C@@H](CCC(N)=O)C\4(C)C)[C@@H](CCC(N)=O)[C@]\3(C)CC(N)=O)[C@@H](CCC(N)=O)[C@]2(C)CC(N)=O.[CH2-][C@H]1O[C@@H](n2cnc3c(N)ncnc32)[C@@H](O)[C@@H]1O.[Co+3] [Cobamamide, cobamamide] |  | inhibited RdRP polymerization activity in a dose-dependent manner | 54.4 | IC50 ([1]; read-out: IC50 (50% decrease in the titre of supernatant virus), MOI 0.05, 48 h): 403 µM; cytotoxicity (Vero E6 cells; highest dose of 1mM): up to 20% |
| C/C1=C2/[N-][C@H]([C@H](CC(N)=O)[C@@]2(C)CCC(=O)NC[C@H](C)OP(=O)([O-])O[C@H]2[C@@H](O)[C@@H](n3cnc4cc(C)c(C)cc43)O[C@@H]2CO)[C@]2(C)N=C(/C(C)=C3N=C(/C=C4N=C1[C@@H](CCC(N)=O)C\4(C)C)[C@@H](CCC(N)=O)[C@]\3(C)CC(N)=O)[C@@H](CCC(N)=O)[C@]2(C)CC(N)=O.[CH3-].[Co+3] [Mecobalamin, methylcobalamin] |  | inhibited RdRP polymerization activity in a dose-dependent manner | 85.7 |  |
| COc1nc(N)nc2c1ncn2[C@@H]1O[C@H](COP(=O)(N[C@@H](C)C(=O)OCC(C)(C)C)Oc2cccc3ccccc23)[C@@H](O)[C@@]1(C)O (some centres unmarked) [BMS-986094] | 26.6 | inhibited RdRP polymerization activity in a dose-dependent manner |  | IC50 (SARS-CoV-2 RdRP): 18.4 µM; total and genomic viral RNA levels in cell lysates (in words) (SARS-CoV-2 [3]): consistently decreasing; cardiac effects (in words) [4]: harmful cardiac effects; concentration at which toxic to cells (Vero E6 cells; 48 h): > 100 µM |
